Results on one compound are retold here after publication PMC5513037, “Examining the influence of specificity ligands and ATP-competitive ligands on the overall effectiveness of bivalent kinase inhibitors” (Proteome Science, 2017).

Common to all, as to experiment: Dasatinib-matrix competition in K562 lysate
Common to all, as to settings: residual binding 50 value; read-out: RB50 (the source's name)

The target in one assay is T1, SMG1 (Homo sapiens, UniProt Q96Q15).
T1 construct: endogenous in cells; host or cells: K562

Another assay deals with T2, TEX14 (Homo sapiens, UniProt Q8IWB6).
T2 construct: endogenous in cells; host or cells: K562

The target in a further assay is T3, TTN (Homo sapiens, UniProt Q8WZ42).
T3 construct: endogenous in cells; host or cells: K562

For a further assay, the target named is T4, ATR (Homo sapiens, UniProt Q13535).
T4 construct: endogenous in cells; host or cells: K562

Another assay has as its target T5, TKT (Homo sapiens, UniProt P29401).
T5 construct: endogenous in cells; host or cells: K562

The next assay concerns the target T6, PIK3R4 (Homo sapiens, UniProt Q99570).
T6 construct: endogenous in cells; host or cells: K562

The target of a further assay is T7, OBSCN (Homo sapiens, UniProt Q5VST9).
T7 construct: endogenous in cells; host or cells: K562

The target in another assay is ATM (Homo sapiens, UniProt Q13315). Also noted: endogenous in cells; host or cells: K562.
The next assay deals with T8, SPEG (Homo sapiens, UniProt Q15772).
T8 construct: endogenous in cells; host or cells: K562

The target in another assay is T9, N-TAF1 (Homo sapiens, UniProt P21675).
T9 construct: endogenous in cells; host or cells: K562

T1 sequence (Q96Q15 whole entry): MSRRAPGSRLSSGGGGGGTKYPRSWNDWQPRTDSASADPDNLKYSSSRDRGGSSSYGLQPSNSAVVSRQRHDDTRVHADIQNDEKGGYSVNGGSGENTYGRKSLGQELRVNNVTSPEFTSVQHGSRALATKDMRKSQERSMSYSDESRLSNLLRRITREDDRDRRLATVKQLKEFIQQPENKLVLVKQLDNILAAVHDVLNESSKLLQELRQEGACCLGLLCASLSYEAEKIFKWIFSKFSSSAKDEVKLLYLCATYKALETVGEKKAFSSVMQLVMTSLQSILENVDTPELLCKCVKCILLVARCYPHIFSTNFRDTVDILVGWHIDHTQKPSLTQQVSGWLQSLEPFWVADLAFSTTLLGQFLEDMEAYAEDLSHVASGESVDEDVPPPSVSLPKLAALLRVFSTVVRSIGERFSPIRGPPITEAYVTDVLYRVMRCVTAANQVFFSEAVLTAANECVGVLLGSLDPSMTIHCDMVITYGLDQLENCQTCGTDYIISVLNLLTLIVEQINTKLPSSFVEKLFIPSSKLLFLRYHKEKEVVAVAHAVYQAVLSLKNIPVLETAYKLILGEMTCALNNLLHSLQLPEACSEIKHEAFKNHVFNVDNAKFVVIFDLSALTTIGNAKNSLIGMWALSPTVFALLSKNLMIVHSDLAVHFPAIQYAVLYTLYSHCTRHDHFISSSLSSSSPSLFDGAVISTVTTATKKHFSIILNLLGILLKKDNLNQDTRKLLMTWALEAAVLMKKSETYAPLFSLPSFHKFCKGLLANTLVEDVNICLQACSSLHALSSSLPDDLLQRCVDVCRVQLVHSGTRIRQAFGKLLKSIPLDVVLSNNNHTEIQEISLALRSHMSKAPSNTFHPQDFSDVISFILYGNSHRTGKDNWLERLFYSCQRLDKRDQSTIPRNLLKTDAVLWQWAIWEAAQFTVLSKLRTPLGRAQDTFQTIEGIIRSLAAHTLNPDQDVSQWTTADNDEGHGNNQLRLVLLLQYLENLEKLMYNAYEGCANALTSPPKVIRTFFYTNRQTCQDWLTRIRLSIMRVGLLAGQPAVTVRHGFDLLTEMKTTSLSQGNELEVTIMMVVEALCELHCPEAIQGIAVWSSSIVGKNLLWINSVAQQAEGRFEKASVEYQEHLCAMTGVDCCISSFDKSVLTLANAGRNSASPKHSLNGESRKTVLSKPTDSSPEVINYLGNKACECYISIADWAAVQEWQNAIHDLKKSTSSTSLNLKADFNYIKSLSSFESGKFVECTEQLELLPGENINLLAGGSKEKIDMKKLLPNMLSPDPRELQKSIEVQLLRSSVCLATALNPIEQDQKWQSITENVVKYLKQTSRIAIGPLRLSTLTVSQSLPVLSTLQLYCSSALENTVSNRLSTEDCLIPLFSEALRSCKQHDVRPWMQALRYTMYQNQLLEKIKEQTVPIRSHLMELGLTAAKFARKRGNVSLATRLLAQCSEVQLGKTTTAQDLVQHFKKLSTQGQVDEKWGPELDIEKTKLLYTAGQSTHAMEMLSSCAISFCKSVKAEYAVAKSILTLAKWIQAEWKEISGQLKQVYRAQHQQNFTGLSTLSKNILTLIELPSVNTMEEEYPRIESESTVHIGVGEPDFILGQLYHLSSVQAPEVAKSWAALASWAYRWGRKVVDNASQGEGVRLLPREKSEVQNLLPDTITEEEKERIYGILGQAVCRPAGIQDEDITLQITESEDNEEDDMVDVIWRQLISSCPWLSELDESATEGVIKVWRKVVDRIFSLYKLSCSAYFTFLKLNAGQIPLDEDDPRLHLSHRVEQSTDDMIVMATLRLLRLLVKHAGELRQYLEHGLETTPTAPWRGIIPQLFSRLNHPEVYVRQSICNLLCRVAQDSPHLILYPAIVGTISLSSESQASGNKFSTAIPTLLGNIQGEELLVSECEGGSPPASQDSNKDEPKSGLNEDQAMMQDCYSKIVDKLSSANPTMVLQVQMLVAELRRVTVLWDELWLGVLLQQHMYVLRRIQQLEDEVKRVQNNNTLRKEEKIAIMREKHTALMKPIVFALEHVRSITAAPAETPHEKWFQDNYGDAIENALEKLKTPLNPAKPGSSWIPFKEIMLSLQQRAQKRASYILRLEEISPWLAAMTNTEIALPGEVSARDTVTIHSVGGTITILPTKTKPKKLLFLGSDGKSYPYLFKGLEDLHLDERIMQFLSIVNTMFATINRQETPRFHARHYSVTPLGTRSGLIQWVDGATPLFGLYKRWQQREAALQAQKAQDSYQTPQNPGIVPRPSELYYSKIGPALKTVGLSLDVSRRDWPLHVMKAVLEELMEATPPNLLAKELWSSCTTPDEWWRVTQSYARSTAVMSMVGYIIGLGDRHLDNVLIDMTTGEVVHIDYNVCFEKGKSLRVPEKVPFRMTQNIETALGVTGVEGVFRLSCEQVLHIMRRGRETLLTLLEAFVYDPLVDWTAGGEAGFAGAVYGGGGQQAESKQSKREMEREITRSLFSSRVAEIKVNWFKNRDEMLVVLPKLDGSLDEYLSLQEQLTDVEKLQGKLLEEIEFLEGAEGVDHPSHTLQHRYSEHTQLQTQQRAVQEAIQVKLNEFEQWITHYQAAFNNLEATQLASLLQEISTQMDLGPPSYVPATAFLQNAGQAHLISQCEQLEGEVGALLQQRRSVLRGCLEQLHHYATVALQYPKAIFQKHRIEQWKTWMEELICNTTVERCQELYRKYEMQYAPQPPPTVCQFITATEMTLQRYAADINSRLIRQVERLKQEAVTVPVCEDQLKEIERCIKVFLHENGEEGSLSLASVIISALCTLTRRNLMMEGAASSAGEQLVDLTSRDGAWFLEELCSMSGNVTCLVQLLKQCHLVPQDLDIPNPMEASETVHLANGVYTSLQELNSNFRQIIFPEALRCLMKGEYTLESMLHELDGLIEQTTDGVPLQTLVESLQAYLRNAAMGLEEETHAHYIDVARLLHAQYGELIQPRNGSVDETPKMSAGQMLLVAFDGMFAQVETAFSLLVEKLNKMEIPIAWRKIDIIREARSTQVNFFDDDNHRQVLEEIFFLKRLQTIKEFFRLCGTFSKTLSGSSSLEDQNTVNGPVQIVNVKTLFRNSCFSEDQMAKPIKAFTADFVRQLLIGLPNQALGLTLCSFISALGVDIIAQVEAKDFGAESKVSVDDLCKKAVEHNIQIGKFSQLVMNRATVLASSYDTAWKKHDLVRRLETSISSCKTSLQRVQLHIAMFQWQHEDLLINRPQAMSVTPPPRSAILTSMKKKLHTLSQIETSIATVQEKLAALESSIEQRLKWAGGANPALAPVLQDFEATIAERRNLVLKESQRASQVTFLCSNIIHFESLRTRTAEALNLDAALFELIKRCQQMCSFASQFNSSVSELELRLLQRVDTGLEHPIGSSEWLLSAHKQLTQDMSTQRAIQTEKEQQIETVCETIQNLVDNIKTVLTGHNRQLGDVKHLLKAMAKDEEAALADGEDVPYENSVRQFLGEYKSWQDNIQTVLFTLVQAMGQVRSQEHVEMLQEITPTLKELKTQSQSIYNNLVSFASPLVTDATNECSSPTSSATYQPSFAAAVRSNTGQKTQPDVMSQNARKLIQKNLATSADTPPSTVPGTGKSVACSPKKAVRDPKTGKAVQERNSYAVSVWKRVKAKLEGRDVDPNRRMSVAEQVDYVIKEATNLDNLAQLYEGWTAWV
T2 sequence (Q8IWB6 whole entry, change not shown): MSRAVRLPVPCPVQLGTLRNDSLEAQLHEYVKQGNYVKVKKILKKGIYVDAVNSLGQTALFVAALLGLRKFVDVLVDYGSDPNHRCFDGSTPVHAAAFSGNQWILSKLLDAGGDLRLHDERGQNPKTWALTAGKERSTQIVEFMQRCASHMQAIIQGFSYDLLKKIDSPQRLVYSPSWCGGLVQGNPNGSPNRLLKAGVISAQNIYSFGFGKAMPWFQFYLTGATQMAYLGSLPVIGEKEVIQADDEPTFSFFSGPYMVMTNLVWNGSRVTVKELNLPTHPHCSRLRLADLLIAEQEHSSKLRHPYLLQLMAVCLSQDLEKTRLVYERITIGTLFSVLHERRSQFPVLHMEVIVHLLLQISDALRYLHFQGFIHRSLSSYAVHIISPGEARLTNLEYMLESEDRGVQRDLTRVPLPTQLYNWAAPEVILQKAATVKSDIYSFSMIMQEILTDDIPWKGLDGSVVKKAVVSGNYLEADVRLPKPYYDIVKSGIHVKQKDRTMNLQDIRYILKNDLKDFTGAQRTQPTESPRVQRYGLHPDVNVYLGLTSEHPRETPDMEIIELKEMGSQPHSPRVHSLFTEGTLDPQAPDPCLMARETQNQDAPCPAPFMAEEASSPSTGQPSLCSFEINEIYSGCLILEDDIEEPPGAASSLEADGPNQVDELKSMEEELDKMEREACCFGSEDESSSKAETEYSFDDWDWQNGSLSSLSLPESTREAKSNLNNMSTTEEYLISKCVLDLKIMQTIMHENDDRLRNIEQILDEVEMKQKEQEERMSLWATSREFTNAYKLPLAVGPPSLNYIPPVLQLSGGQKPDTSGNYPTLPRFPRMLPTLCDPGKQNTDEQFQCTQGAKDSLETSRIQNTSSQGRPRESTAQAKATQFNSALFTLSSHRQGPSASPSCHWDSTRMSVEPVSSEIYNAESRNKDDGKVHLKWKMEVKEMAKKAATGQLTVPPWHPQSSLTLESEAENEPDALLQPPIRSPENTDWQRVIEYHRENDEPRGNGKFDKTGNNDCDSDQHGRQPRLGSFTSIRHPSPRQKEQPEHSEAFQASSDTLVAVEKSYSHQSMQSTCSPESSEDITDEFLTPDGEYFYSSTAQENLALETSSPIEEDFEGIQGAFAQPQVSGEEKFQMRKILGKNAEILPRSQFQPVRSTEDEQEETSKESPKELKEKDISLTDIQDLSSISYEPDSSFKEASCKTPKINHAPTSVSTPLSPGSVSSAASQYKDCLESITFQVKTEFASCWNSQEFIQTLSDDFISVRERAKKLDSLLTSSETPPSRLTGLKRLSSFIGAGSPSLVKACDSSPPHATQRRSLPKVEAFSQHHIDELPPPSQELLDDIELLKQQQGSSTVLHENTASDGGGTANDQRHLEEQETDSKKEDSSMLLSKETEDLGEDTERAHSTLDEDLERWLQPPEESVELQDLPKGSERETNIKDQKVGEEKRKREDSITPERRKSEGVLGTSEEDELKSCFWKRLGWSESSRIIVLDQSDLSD

Regarding `Cc1nc(Nc2ncc(C(=O)Nc3c(C)cccc3Cl)s2)cc(N2CCN(CCO)CC2)n1` [Dasatinib], the IC50 at SMG1, on TEX14, on TTN, on ATR, on TKT and on PIK3R4 was more than 10 µM in each case. The IC50 on OBSCN was more than 10 µM; on ATM, more than 10 µM; at SPEG, more than 10 µM; at N-TAF1, 9.66 µM.
